Test results taken from PMC9323911, “Comparative Metabolomics Study of the Impact of Articaine and Lidocaine on the Metabolism of SH-SY5Y Neuronal Cells” (Metabolites, 2022).
Structures can show the parent of a compound that is named as a salt.

Assays:
[1] = tested on: SH-SY5Y cells; assay: 1H NMR metabolic profiling of cell aqueous extracts; type: cell-based, human; conditions: for 2-Ketovaline, variation in relation to control / 2-Oxoisoleucine, variation in relation to control / ATP + ADP, variation in relation to control / Alanine, variation in relation to control / Asparagine, variation in relation to control / Aspartate, variation in relation to control / Creatine, variation in relation to control / Cystathionine, variation in relation to control / Formate, variation in relation to control / Glutamate, variation in relation to control / Glutamine, variation in relation to control / Glycerophosphocholine, variation in relation to control / Glycine, variation in relation to control / Histidine, variation in relation to control / Isobutyrate, variation in relation to control / Isoleucine, variation in relation to control / Lactate, variation in relation to control / Leucine, variation in relation to control / NAD+, variation in relation to control / Panthothenic, variation in relation to control / Phenylalanine, variation in relation to control / Phosphocholine, variation in relation to control / Phosphocreatine, variation in relation to control / Proline, variation in relation to control / UDP-GlcNAc, variation in relation to control / Valine, variation in relation to control / beta-Alanine, variation in relation to control / myo-Inositol, variation in relation to control: aqueous extract
Method: (§1) Afterward, the medium was collected and the dishes washed with cold PBS, immediately before the solvent extraction procedure described below. Unexposed cells were used as controls. Each assay comprised duplicates of each condition and three independent assays were performed, giving a total of 6 replicates per condition.
(§2) The culture medium was collected from each plate (including cell-free medium incubated under the same conditions) in conical tubes and centrifuged at 1000× g for 10 min. Furthermore, 300 µL of the supernatant were collected for protein precipitation, as described by Kostidis et al.. Briefly, 600 µL of 100% methanol (v/v) at −80 °C were added to the collected supernatant ([…]). […] The supernatant was transferred to another tube and vacuum dried (SpeedVac, Eppendorf, Hamburg, Germany). For extracting cellular metabolites, a biphasic extraction protocol (methanol:chloroform:water; 1:1:0.7) was used as previously described. The resulting polar extracts were dried under vacuum in a Speedvac concentrator, and the lipophilic extracts were dried under a nitrogen flow. All extracts were stored at −80 °C prior to NMR analysis.
(§3) For NMR analysis, dried aqueous and lipid extracts were dissolved, respectively, in 600 μL of deuterated phosphate buffer (PBS 100 mM, pH 7.4) containing 0.1 mM 3-(trimethylsilyl) propionic acid (TSP-d4), and 600 μL of deuterated chloroform containing 0.03% tetramethylsilane (TMS). […] Two-dimensional NMR spectra, namely, ^1H-^1H TOCSY, J-resolved and ^1H-^13C HSQC spectra, were also recorded for selected samples to aid metabolite identification. Signal assignment was based on matching 1D and 2D spectral information to reference spectra available in Chenomx 9.0 (Edmonton, AB, Canada), BBIOREFCODE-2–0–0 (Bruker Biospin, Rheinstetten, Germany) and HMDB.
Principal Component Analysis (PCA) and Partial Least Squares-Discriminant Analysis (PLS-DA) were applied and the results were visualized through factorial co-ordinates (‘scores’) and factorial contributions (‘loadings’) colored according to variable importance to the projection (VIP). For PLS-DA models, Q^2 and R^2 values, respectively reflecting predictive capability and explained variance, obtained from sevenfold internal cross validation, were used to assess the robustness of group discrimination.
(§4) To provide a quantitative measurement of metabolic variations, spectral integration and total area normalization of selected signals (vide Supplementary Table S1) were carried out in Amix-Viewer 3.9.15 (Bruker Biospin, Rheinstetten, Germany). For each metabolite, the percentage of variation (or fold change) in exposed samples was calculated relative to respective controls, along with the effect size (ES) and statistical significance (p-value). The variations with larger magnitude (|ES| > 0.8) were expressed in a heatmap.

[2] = tested on: SH-SY5Y cells; assay: 1H NMR metabolic profiling of culture medium (consumption/excretion); type: cell-based, human; conditions: vs control
Method: as §1, §2, §3, §4

[3] = set-up: method as in PMID 31172838; conditions: ATC vs LDC; cited from earlier work
[4] = set-up: method as in PMID 31172838; conditions: neutral species; cited from earlier work
[5] = cited from earlier work
[6] = tested on: SH-SY5Y cells; conditions: cited from earlier work
[7] = tested on: neuronal cells of a different lineage (SHEP); conditions: 24 h; cited from earlier work

In the case of `CCCNC(C)C(=O)Nc1c(C)csc1C(=O)OC` (stereo not drawn) [ATC, Articaine hydrochloride], the “2-Ketovaline, variation in relation to control” value ([1]; IC10, 24 h) is reported as 24.7%, the “2-Oxoisoleucine, variation in relation to control” value ([1]; IC10, 24 h) is reported as 33.8% and the “ATP + ADP, variation in relation to control” value ([1]; IC10, 24 h) is reported as -8.0%. For the same molecule, the “Alanine, variation in relation to control” value ([1]; IC10, 24 h) was 0.0%, the “Asparagine, variation in relation to control” value ([1]; IC10, 24 h) was -24.6% and the “Aspartate, variation in relation to control” value ([1]; IC10, 24 h) was -17.2%. For the same molecule, the “Creatine, variation in relation to control” value ([1]; IC10, 24 h) was 9.0%, the “Cystathionine, variation in relation to control” value ([1]; IC10, 24 h) was 10.9% and the “Formate, variation in relation to control” value ([1]; IC10, 24 h) was 0.0%. The “Glutamate, variation in relation to control” value ([1]; IC10, 24 h) was -6.3%, the “Glutamine, variation in relation to control” value ([1]; IC10, 24 h) was -10.8% and the “Glycerophosphocholine, variation in relation to control” value ([1]; IC10, 24 h) was -11.3%. For the same molecule, the “Glycine, variation in relation to control” value ([1]; IC10, 24 h) was 0.0%, the “Histidine, variation in relation to control” value ([1]; IC10, 24 h) was 29.6% and the “Isobutyrate, variation in relation to control” value ([1]; IC10, 24 h) was 0.0%. For the same molecule, the “Isoleucine, variation in relation to control” value ([1]; IC10, 24 h) was 30.5%, the “Lactate, variation in relation to control” value ([1]; IC10, 24 h) was 0.0% and the “Leucine, variation in relation to control” value ([1]; IC10, 24 h) was 39.9%. The “NAD+, variation in relation to control” value ([1]; IC10, 24 h) was 0.0%, the “Panthothenic, variation in relation to control” value ([1]; IC10, 24 h) was 42.7% and the “Phenylalanine, variation in relation to control” value ([1]; IC10, 24 h) was 43.6%. For the same molecule, the “Phosphocholine, variation in relation to control” value ([1]; IC10, 24 h) was 0.0%, the “Phosphocreatine, variation in relation to control” value ([1]; IC10, 24 h) was 0.0% and the “Proline, variation in relation to control” value ([1]; IC10, 24 h) was 0.0%. The “UDP-GlcNAc, variation in relation to control” value ([1]; IC10, 24 h) was -18.7%, the “Valine, variation in relation to control” value ([1]; IC10, 24 h) was 27.2% and the “beta-Alanine, variation in relation to control” value ([1]; IC10, 24 h) was -7.4%. For the same molecule, the “myo-Inositol, variation in relation to control” value ([1]; IC10, 24 h) was -19.0%, the “2-Ketovaline, variation in relation to control” value ([1]; IC50, 24 h) was 28.3% and the “2-Oxoisoleucine, variation in relation to control” value ([1]; IC50, 24 h) was 34.4%. The “ATP + ADP, variation in relation to control” value ([1]; IC50, 24 h) was -14.0%, the “Alanine, variation in relation to control” value ([1]; IC50, 24 h) was 21.3% and the “Asparagine, variation in relation to control” value ([1]; IC50, 24 h) was 26.5%. The “Aspartate, variation in relation to control” value ([1]; IC50, 24 h) was 23.7%, the “Creatine, variation in relation to control” value ([1]; IC50, 24 h) was 14.7% and the “Cystathionine, variation in relation to control” value ([1]; IC50, 24 h) was 0.0%. The “Formate, variation in relation to control” value ([1]; IC50, 24 h) was 40.5%, the “Glutamate, variation in relation to control” value ([1]; IC50, 24 h) was 25.8% and the “Glutamine, variation in relation to control” value ([1]; IC50, 24 h) was 17.8%. The “Glycerophosphocholine, variation in relation to control” value ([1]; IC50, 24 h) was -75.7%, the “Glycine, variation in relation to control” value ([1]; IC50, 24 h) was 42.8% and the “Histidine, variation in relation to control” value ([1]; IC50, 24 h) was 37.5%. The “Isobutyrate, variation in relation to control” value ([1]; IC50, 24 h) was -78.2%, the “Isoleucine, variation in relation to control” value ([1]; IC50, 24 h) was 44.5% and the “Lactate, variation in relation to control” value ([1]; IC50, 24 h) was -17.5%. For the same molecule, the “Leucine, variation in relation to control” value ([1]; IC50, 24 h) was 60.3%, the “NAD+, variation in relation to control” value ([1]; IC50, 24 h) was 11.9% and the “Panthothenic, variation in relation to control” value ([1]; IC50, 24 h) was 40.0%. The “Phenylalanine, variation in relation to control” value ([1]; IC50, 24 h) was 50.2%, the “Phosphocholine, variation in relation to control” value ([1]; IC50, 24 h) was 0.0% and the “Phosphocreatine, variation in relation to control” value ([1]; IC50, 24 h) was -18.9%. The “Proline, variation in relation to control” value ([1]; IC50, 24 h) was -17.8%, the “UDP-GlcNAc, variation in relation to control” value ([1]; IC50, 24 h) was -85.9% and the “Valine, variation in relation to control” value ([1]; IC50, 24 h) was 44.8%. For the same molecule, the “beta-Alanine, variation in relation to control” value ([1]; IC50, 24 h) was -60.7%, the “myo-Inositol, variation in relation to control” value ([1]; IC50, 24 h) was -42.6% and the “intracellular glutamate level (in words)” value ([1]; IC50, 24 h, vs control) was “increased”. For the same molecule, the “intracellular phosphocholine level (in words)” value ([1]; IC50, 24 h, vs control) was “not altered”, the pyruvate consumption ([2]; IC10, 24 h) was “increased significantly” and the pyruvate consumption ([2]; IC50, 24 h) was “no difference to controls”. The “fold lower egg phosphatidylcholine/aqueous buffer partition coefficient (P) than LDC” value [3] was 10 ×, the Aqueous solubility [4] was 62.1 mM and the Plasma half-life [5] was 20 min. For the same molecule, the “effect on cells at very short exposure” value ([6]; 5 min exposure) was “no effect”, the LD50 ([6]; 20 min incubation of SH-SY5Y cells) was 9.0 mM and the LD50 [7] was 13.4 mM.
